Assay results taken from patent EP0726903B1, “MATRIX METALLOPROTEASE INHIBITORS” (SYNTEX (U.S.A.) INC., priority 1993, dated 1995).

Assays:
HFC = target: T1, HFC (Homo sapiens, UniProt P03956); experiment: In vitro enzyme inhibition assay (fluorescence, thiopeptide substrate), HFC; assay type: biochemical
T1 sequence (P03956 100-469): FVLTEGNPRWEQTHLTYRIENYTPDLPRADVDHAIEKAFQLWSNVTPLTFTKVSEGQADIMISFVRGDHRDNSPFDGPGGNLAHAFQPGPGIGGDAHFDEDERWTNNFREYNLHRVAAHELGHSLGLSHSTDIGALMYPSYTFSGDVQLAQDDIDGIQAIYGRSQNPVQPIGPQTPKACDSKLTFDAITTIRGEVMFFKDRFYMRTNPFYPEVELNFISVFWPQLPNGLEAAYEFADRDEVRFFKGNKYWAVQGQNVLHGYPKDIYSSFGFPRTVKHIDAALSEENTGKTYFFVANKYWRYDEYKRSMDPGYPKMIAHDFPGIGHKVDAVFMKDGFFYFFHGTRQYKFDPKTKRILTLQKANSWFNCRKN

STROM. = STROM. (Homo sapiens, UniProt P08254); experiment: In vitro enzyme inhibition assay (fluorescence, thiopeptide substrate), STROM.; assay type: biochemical
[1] = tested on: release of ^35S-labelled glycosaminoglycans (GAG's) from cartilage explants; experiment: Inhibition of release of 35S-labelled glycosaminoglycans from cartilage explants; assay type: cell-based; settings: Bos taurus; bovine knee joint cartilage explants, release induced by rhIL-1-alpha
Procedure: This assay determines if the compounds of formula (I) inhibit the release of ^35S-labelled glycosaminoglycans (GAG's) from cartilage explants.
Small cartilage explants (3 mm diameter) were prepared from freshly sacrificed bovine knee joints and labeled with ^35SO4. ^35S-labelled glycosaminoglycans (GAG's) are released into the culture medium in response to the addition of rhIL-1-alpha, which induces the expression of chondrocyte matrix metalloproteases (MMP's), including stromelysin and collagenase. The percent inhibition of labeled GAG's was corrected for spontaneous release in the absence of rh1L-1-alpha. Results for each group represent the mean ± the S.E.M. for five explants.

[2] = tested on: bovine PTH induced bone resorption; experiment: In vitro fetal rat long bone model of bone resorption (45Ca release); assay type: cell-based; settings: ^45Ca release from fetal rat long bones, Bovine PTH (1-34) at 1x10^-8M, Day 6
Source text: An in vitro fetal rat long bone model was used to study the anti-bone resorptive effect of the compounds of formula (I). Bovine PTH was used to induce bone resorption in vitro. The bone resorptive effects were expressed by the amounts of ^45Ca released from the ^45Ca pre-labelled fetal rat long bones into the culture medium. The inhibitory effect of the compounds of formula (I) against bovine PTH induced bone resorption was expressed as mean percent inhibition ± sem.
^45Ca-prelabelled fetal rat long bones (from forearms) were dissected and cultured in Linbro dishes at 37°C overnight BGJb medium, supplemented with lmg/ml BSA. There were five pairs of bones in each group. The compounds of formula (I) were dissolved in ethanol first, then diluted to various concentrations and added simultaneously with Bovine PTH (1-34) at […] on Day 1. […] The assay was terminated on Day 6 with one media change on Day 3.
At the end of each medium change, the ^45Ca present in the culture medium was counted. The remaining bones were digested with 0.1N HCl and the ^45Ca presented in the bone digest was also counted. The results are expressed as % of the total ^45Ca released from each pair of bones. Bovine PTH at 1x10^-8M induces bone resorption to the maximum level which is set as 100% and this concentration was used as standard. The level of base line bone resorption in the presence of medium only was set as 0%. All compound-treated groups were compared with bovine PTH (1-34) at 1x10^-8M.

Chain of STROM. (P08254 100-477): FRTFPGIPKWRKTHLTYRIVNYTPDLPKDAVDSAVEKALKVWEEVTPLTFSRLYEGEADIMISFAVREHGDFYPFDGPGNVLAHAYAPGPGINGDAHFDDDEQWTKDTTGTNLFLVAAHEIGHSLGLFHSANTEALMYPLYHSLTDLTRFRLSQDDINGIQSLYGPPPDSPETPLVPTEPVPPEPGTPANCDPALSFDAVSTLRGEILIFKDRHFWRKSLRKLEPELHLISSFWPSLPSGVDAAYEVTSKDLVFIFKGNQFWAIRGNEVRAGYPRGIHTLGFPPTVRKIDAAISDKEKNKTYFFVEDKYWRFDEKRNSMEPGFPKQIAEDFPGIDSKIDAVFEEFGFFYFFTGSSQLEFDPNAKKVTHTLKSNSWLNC

IC50 (HFC) [nM] | IC50 (STROM.) [nM] | IC50 ([2]; 144 h) [µM] | SMILES | EC50 [1] [µM] | IC50 [2] [µM]
8.4 | 1.4 | 0.27 | COC(=O)c1ccc(NC(=O)[C@H](CC(C)C)NC(=O)C(CC(=O)NO)CC(C)C)cc1 (stereo partly drawn) [Compound 2, N-(4-methyl-2-(N"-hydroxycarbamoyl)methylpentanoyl)-L-leucine-N'-(4-methoxycarbonylphenyl)carboxamide] | 3.5 | –
– | – | – | COC(=O)c1ccc(NC(=O)[C@H](Cc2c[nH]c3ccccc23)NC(=O)C(CC(=O)NO)CC(C)C)cc1 (single isomer, unassigned) [Compound 3, N-(4-methyl-2-(N"-hydroxycarbamoyl)methylpentanoyl)-L-tryptophan-N'-(4-methoxycarbonylphenyl)carboxamide] | – | 0.05
– | – | – | COC(=O)c1ccc(NC(=O)[C@H](CCSC)NC(=O)C(CC(C)C)CP(=O)(O)CSc2ccc3ccccc3n2)cc1 (stereo partly drawn) [Compound 1, N-(2-(hydroxy)(quinolin-2-ylthiomethyl)phosphinoylmethyl-4-methylpentanoyl)-L-methionine-N'-(4-methoxycarbonylphenyl)carboxamide] | – | ≥ 5
– | – | – | COC(=O)c1ccc(NC(=O)[C@H](Cc2c[nH]c3ccccc23)NC(=O)C(CC(=O)NO)CC(C)C)cc1 (single isomer, unassigned) [Compound 4, N-(4-methyl-2-(N"-hydroxycarbamoyl)methylpentanoyl)-L-tryptophan-N'-(4-methoxycarbonylphenyl)carboxamide] | – | ≥ 5
